Experimental data published in ChEMBL document CHEMBL5728586, “Substituted 6-azabenzimidazole compounds” (2021).

Target: Mitogen-activated protein kinase kinase kinase kinase 1 (Homo sapiens, UniProt Q92918)
Assay: Enzymatic Activity Assay: Recombinant HPK1 kinase domain produced via baculovirus infection of insect cells was obtained from Proteros (Proteros Biostructures #PR-0322) and was pre-activated in the presence of 2 mM ATP (Sigma-Aldrich, cat #GE27-2056-01) and 2 mM magnesium chloride for 16 hours at 4° C. The protein reaction mixture was then loaded to a desalting column (Thermo Fisher Scientific, Cat #89889) to remove excess ATP. HPK1 was eluted with buffer containing 20 mM Tris (2-Amino-2-(hydroxymethyl)propane-1,3-diol) pH 8.0, 150 mM NaCl, 2 mM dithiothreitol and 5% glycerol, and was frozen at −80° C. for later use. HPK1 dual phosphorylation was confirmed by mass spectrometry.Ten nanoliters of test compounds dissolved in DMSO at various concentrations were dispensed into a 384-well ProxiPlate (PerkinElmer #6008289). Five microliters of a solution of recombinant HPK1 diluted in HPK1 kinase assay buffer (50 mM BES [N,N-Bis(2-hydroxyethyl)-2-aminoethanesulfonic acid], pH 7.0; 10 mM magnesium chloride; 0.01% Triton X-100; 1 mM dithiothreitol; 0.01% bovine serum albumin; 0.1 mM sodium orthovanadate) was added to the compound-containing plate and was incubated for 15 minutes at 25° C. Five microliters of a mixture of ATP (Sigma-Aldrich #A6559) and peptide substrate STK S1 (Cisbio #61ST1BLC) diluted in HPK1 kinase assay buffer was then added to start the reaction. […]

Mitogen-activated protein kinase kinase kinase kinase 1, sequence (Q92918 whole entry, the tested form may be a part): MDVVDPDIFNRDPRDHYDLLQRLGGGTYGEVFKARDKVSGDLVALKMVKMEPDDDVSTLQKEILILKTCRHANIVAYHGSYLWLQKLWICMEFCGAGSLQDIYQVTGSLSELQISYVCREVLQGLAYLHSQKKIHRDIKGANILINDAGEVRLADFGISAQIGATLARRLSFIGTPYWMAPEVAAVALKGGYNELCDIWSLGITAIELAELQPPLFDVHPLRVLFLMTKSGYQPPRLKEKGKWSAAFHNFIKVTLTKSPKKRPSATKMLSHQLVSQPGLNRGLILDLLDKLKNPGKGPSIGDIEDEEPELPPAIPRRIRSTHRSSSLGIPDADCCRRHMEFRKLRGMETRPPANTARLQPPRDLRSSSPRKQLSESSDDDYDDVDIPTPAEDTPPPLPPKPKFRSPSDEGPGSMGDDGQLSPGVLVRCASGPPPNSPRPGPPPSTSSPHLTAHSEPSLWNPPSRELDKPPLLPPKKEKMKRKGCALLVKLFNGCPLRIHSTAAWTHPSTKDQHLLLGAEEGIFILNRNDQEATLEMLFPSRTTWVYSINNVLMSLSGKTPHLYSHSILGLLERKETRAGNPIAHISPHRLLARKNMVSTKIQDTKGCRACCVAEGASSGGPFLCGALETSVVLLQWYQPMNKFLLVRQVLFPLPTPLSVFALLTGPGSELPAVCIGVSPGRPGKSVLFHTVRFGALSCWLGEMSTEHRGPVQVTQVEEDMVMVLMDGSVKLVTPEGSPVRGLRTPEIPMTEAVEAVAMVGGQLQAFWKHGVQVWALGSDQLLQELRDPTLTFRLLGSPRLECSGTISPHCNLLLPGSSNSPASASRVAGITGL

SMILES	IC50 [pM]
CC(C)n1cnc2cc(-c3ccc4c(c3)N([C@H]3C[C@@H](N5CCC(C)(C)C5)C3)C(=O)C43CCN(C(=O)[C@H]4CC[C@@H](C)O4)CC3)nc(Nc3ccncc3F)c21	200
CC(C)n1cnc2cc(-c3ccc4c(c3)N([C@H]3C[C@@H](N5CCC(C)(C)C5)C3)C(=O)C43CCN(C(=O)[C@@H]4OCC[C@@H]4C)CC3)nc(Nc3ccncc3F)c21	300
